This is an account of results in ChEMBL document CHEMBL4706513, “New insight into 20(S)-ginsenoside Rh2 against T-cell acute lymphoblastic leukemia associated with the gut microbiota and the immune system” (2020).

The source made the active and inactive calls. The calls are words filed in the database; no cut-off is given here.

In assay [1] the test system is Mus musculus. Nature of the assay: Inhibition of intestinal inflammation in SCID/NOD mouse xenografted with human Jurkat cells assessed as decrease in MYD88 expression in colon at 40 mg/kg, po administered once a day for 3 weeks by Western blot analysis. The format is functional, organism-based. The conditions noted are these: dose 40.0 mg/kg/day.
The test system of assay [2] is Mus musculus. Briefly: Inhibition of intestinal inflammation in SCID/NOD mouse xenografted with human Jurkat cells assessed as decrease in IL-6 level in colon at 40 mg/kg, po administered once a day for 3 weeks by ELISA. The format is functional, organism-based. Conditions: dose 40.0 mg/kg/day.
Assay [3] deals with Mus musculus. Nature of the assay: Induction of intestinal homeostasis in SCID/NOD mouse xenografted with human Jurkat cells assessed as upregulation of occludin mRNA levels in colon at 40 mg/kg, po administered once a day for 3 weeks by real time RT-PCR analysis. Conditions: dose 40.0 mg/kg/day. Type of assay: functional, organism-based.
Assay [4] has as its system Mus musculus. Nature of the assay: Induction of intestinal homeostasis in SCID/NOD mouse xenografted with human Jurkat cells assessed as increase in Reg3g expression in colon at 40 mg/kg, po administered once a day for 3 weeks by Western blot analysis. Type of assay: functional, organism-based. The conditions noted are these: dose 40.0 mg/kg/day.
The test system of assay [5] is Mus musculus. Nature of the assay: In vivo inhibition of mTOR phosphorylation at Ser2448 residue in spleen of SCID/NOD mouse xenografted with human Jurkat cells at 40 mg/kg, po administered once a day for 3 weeks by Western blot method. Type of assay: functional, organism-based. The conditions noted are these: dose 40.0 mg/kg/day.
The test system of assay [6] is Mus musculus. Nature of the assay: Inhibition of intestinal inflammation in SCID/NOD mouse xenografted with human Jurkat cells assessed as decrease in LPS level in colon at 40 mg/kg, po administered once a day for 3 weeks by ELISA. Type of assay: functional, organism-based. Conditions: dose 40.0 mg/kg/day.
The subject of assay [7] is Mus musculus. Briefly: Induction of intestinal homeostasis in SCID/NOD mouse xenografted with human Jurkat cells assessed as decrease of enlargement of epithelial cells and infiltration of inflammatory cells in the colon at 40 mg/kg, po administered once a day for 3 weeks by Hand E staining based microscopic analysis. The format is functional, organism-based. Conditions: dose 40.0 mg/kg/day.

The test system of assay [8] is Mus musculus. Briefly: Inhibition of intestinal inflammation in SCID/NOD mouse xenografted with human Jurkat cells assessed as decrease in IL1beta level in colon at 40 mg/kg, po administered once a day for 3 weeks by ELISA. The format is functional, organism-based. The conditions noted are these: dose 40.0 mg/kg/day.
The subject of assay [9] is Mus musculus. Nature of the assay: Inhibition of intestinal inflammation in SCID/NOD mouse xenografted with human Jurkat cells assessed as decrease in TNFalpha level in colon at 40 mg/kg, po administered once a day for 3 weeks by ELISA. The format is functional, organism-based. Conditions: dose 40.0 mg/kg/day.
Assay [10] has as its system Mus musculus. Briefly: Induction of immune response in SCID/NOD mouse xenografted with human Jurkat cells assessed as decrease in IL-6 level in spleen at 40 mg/kg, po administered once a day for 3 weeks by ELISA reader method. Type of assay: functional, organism-based. Conditions: dose 40.0 mg/kg/day.
Assay [11] relates to Mus musculus. Briefly: Inhibition of intestinal dysbiosis in SCID/NOD mouse xenografted with human Jurkat cells assessed as increase in abundance of Verrucomicrobia in cecum at 40 mg/kg, po administered once a day for 3 weeks by multiplexed 16S rRNA gene sequencing analysis. The conditions noted are these: dose 40.0 mg/kg/day. Type of assay: functional, organism-based.
In assay [12] the test system is Mus musculus. Nature of the assay: Inhibition of intestinal dysbiosis in SCID/NOD mouse xenografted with human Jurkat cells assessed as decrease in abundance of Firmicutes in cecum at 40 mg/kg, po administered once a day for 3 weeks by multiplexed 16S rRNA gene sequencing analysis. The format is functional, organism-based. Conditions: dose 40.0 mg/kg/day.
For assay [13], the system named is Mus musculus. Nature of the assay: Induction of immune response in SCID/NOD mouse xenografted with human Jurkat cells assessed as increase in IFN-gamma level in spleen at 40 mg/kg, po administered once a day for 3 weeks by ELISA reader method. The conditions noted are these: dose 40.0 mg/kg/day. The format is functional, organism-based.
Assay [14] concerns Mus musculus. Briefly: Induction of immune response in SCID/NOD mouse xenografted with human Jurkat cells assessed as decrease in IL-10 level in spleen at 40 mg/kg, po administered once a day for 3 weeks by ELISA reader method. The format is functional, organism-based. The conditions noted are these: dose 40.0 mg/kg/day.
Assay [15] deals with Mus musculus. Nature of the assay: Induction of immune response in SCID/NOD mouse xenografted with human Jurkat cells assessed as decrease in IL-4 level in spleen at 40 mg/kg, po administered once a day for 3 weeks by ELISA reader method. Type of assay: functional, organism-based. The conditions noted are these: dose 40.0 mg/kg/day.
The subject of assay [16] is Mus musculus. Briefly: Inhibition of intestinal dysbiosis in SCID/NOD mouse xenografted with human Jurkat cells assessed as increase in abundance of Lactobacillus in cecum at 40 mg/kg, po administered once a day for 3 weeks by multiplexed 16S rRNA gene sequencing analysis. The format is functional, organism-based. The conditions noted are these: dose 40.0 mg/kg/day.

For another assay, the system named is Jurkat. Nature of the assay: Antitumour activity against human Jurkat cells xenografted in SCID/NOD mouse assessed as increase in body weight at 40 mg/kg, po administered once a day for 3 weeks. The format is functional, organism-based. The conditions noted are these: dose 40.0 mg/kg/day.
In assay [17] the test system is Mus musculus. Briefly: In vivo inhibition of Akt phosphorylation at Ser473 residue in spleen of SCID/NOD mouse xenografted with human Jurkat cells at 40 mg/kg, po administered once a day for 3 weeks by Western blot method. Type of assay: functional, organism-based. The conditions noted are these: dose 40.0 mg/kg/day.
For assay [18], the system named is Mus musculus. Briefly: Inhibition of intestinal dysbiosis in SCID/NOD mouse xenografted with human Jurkat cells assessed as decrease in ratio of Firmicutes to Bacteroidetes in cecum at 40 mg/kg, po administered once a day for 3 weeks by multiplexed 16S rRNA gene sequencing analysis. Type of assay: functional. The conditions noted are these: dose 40 mg/kg/day.

The test system of assay [19] is Mus musculus. Nature of the assay: Inhibition of intestinal inflammation in SCID/NOD mouse xenografted with human Jurkat cells assessed as decrease in TLR4 expression in colon at 40 mg/kg, po administered once a day for 3 weeks by Western blot analysis. The format is functional, organism-based. Conditions: dose 40.0 mg/kg/day.
The subject of assay [20] is Mus musculus. Nature of the assay: Induction of immune response in SCID/NOD mouse xenografted with human Jurkat cells assessed as increase in NK cells in spleen at 40 mg/kg, po administered once a day for 3 weeks by ELISA reader method. Conditions: dose 40.0 mg/kg/day. Type of assay: functional, organism-based.
Assay [21] deals with Mus musculus. Briefly: Antitumour activity against human Jurkat cells xenografted in SCID/NOD mouse assessed as decrease in expression of CD45 in bone marrow at 40 mg/kg, po administered once a day for 3 weeks by immunohistochemical staining method. The format is functional, organism-based. Conditions: dose 40.0 mg/kg/day.
For assay [22], the system named is Mus musculus. Briefly: Inhibition of intestinal dysbiosis in SCID/NOD mouse xenografted with human Jurkat cells assessed as decrease in abundance of Alistipes in cecum at 40 mg/kg, po administered once a day for 3 weeks by multiplexed 16S rRNA gene sequencing analysis. The conditions noted are these: dose 40.0 mg/kg/day. The format is functional, organism-based.

The subject of assay [23] is Mus musculus. Nature of the assay: Induction of intestinal homeostasis in SCID/NOD mouse xenografted with human Jurkat cells assessed as increase in goblet cells in the glands at 40 mg/kg, po administered once a day for 3 weeks by Hand E staining based microscopic analysis. The format is functional, organism-based. The conditions noted are these: dose 40.0 mg/kg/day.

Consider `CC(C)=CCC[C@](C)(O)[C@H]1CC[C@]2(C)[C@@H]1[C@H](O)C[C@@H]1[C@@]3(C)CC[C@H](O[C@@H]4O[C@H](CO)[C@@H](O)[C@H](O)[C@H]4O)C(C)(C)[C@@H]3CC[C@]12C` [GINSENOSIDE RH2], for which the inhibition result in the assay with Mus musculus [1], in the assay with Mus musculus [2], with Mus musculus [5], in the assay with Mus musculus [6], in the assay with Mus musculus [8] and in the assay on Mus musculus [9] was “Active” each time. Further, the inhibition result in the assay on Mus musculus [11], in the assay on Mus musculus [12], with Mus musculus [16], in the assay with Mus musculus [17], in the assay on Mus musculus [19] and in the assay on Mus musculus [22] was “Active” throughout. The outcome with Mus musculus [3], in the assay with Mus musculus [4], in the assay on Mus musculus [7], in the assay on Mus musculus [10], in the assay on Mus musculus [13] and with Mus musculus [14] was Active. Besides, the result with Mus musculus [15], in the assay with Jurkat, with Mus musculus [20], with Mus musculus [21] and with Mus musculus [23] was Active. Besides, the Ratio with Mus musculus [18] was determined as 0.47.
